Assay results published in PubChem BioAssay (NCI).
Several values for one entry are separate records, joined by “and”; a condition that tells them apart may be missing. Identical values can stand only once.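 Cultured in 96-well plates, cells were exposed to test compound for 48 hours across five concentrations. At the GI50, growth is halved. TGI denotes the concentration required for complete inhibition of growth.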

Experiments:
Test in all cases: DTP human tumour cell line panel, 48 h
CCRF-CEM leukemia = test system: CCRF-CEM leukemia
HCC-2998 colon = test system: HCC-2998 colon
HT29 colon = test system: HT29 colon
LOX IMVI melanoma = test system: LOX IMVI melanoma
MALME-3M melanoma = test system: MALME-3M melanoma
PC-3 prostate = test system: PC-3 prostate
SF-295 CNS = test system: SF-295 CNS
SNB-75 CNS = test system: SNB-75 CNS
SR leukemia = test system: SR leukemia
SK-OV-3 ovarian = test system: SK-OV-3 ovarian

SMILES	TGI (CCRF-CEM leukemia)	TGI (HCC-2998 colon)	TGI (HT29 colon)	TGI (LOX IMVI melanoma)	TGI (MALME-3M melanoma)	TGI (PC-3 prostate)	TGI (SF-295 CNS)	TGI (SNB-75 CNS)	TGI (SR leukemia)	TGI (SK-OV-3 ovarian)	GI50 (SNB-75 CNS)	GI50 (CCRF-CEM leukemia)	GI50 (LOX IMVI melanoma)	GI50 (MALME-3M melanoma)	GI50 (PC-3 prostate)	GI50 (SR leukemia)	GI50 (HCC-2998 colon)
CNc1ccc2c(c1)Cc1ccccc1-2	> 100 µM	> 100 µM	> 100 µM	> 100 µM	> 100 µM	> 100 µM	> 100 µM	> 100 µM	91.2 µM	–	–	–	–	–	–	–	–
CC1(C)[C@@H]2C[C@H]1c1cnc(-c3ccccn3)cc1[C@H]2C(O)[C@@H]1c2cc(-c3ccccn3)ncc2[C@H]2C[C@@H]1C2(C)C (stereo partly drawn)	–	20.8 µM	3.57 µM	4.52 µM	21.6 µM	11 µM	11.4 µM	87.3 µM	0.354 µM	14.8 µM	–	–	–	–	–	–	–
CCOC1NC(=O)c2ccccc21 (stereo not drawn)	> 100 µM	> 100 µM	> 100 µM	> 100 µM	> 100 µM	> 100 µM	> 100 µM	> 100 µM	> 100 µM	> 100 µM	–	–	–	–	–	–	–
CN(C)c1nc(=NCc2ccccn2)ss1	> 10 µM	> 10 µM	> 10 µM	6.46 µM	> 8.91 µM	> 10 µM	> 10 µM	> 10 µM	4.75 µM	> 10 µM	–	–	–	–	–	–	–
CC1=NC(C)(C)N(O)C1(C)C	> 100 µM	> 100 µM	> 100 µM	> 100 µM	> 100 µM	> 100 µM	> 100 µM	> 100 µM	> 100 µM	> 100 µM	–	–	–	–	–	–	–
COc1ccc(N2C(=O)C3c4[nH]c5ccccc5c4C4C(C)CCCC4C3C2=O)cc1 (stereo not drawn)	> 100 µM	> 100 µM	> 100 µM	> 100 µM	52.6 µM	> 100 µM	> 100 µM	> 77 µM	> 46.8 µM	> 100 µM	–	–	–	–	–	–	–
COc1cc(/C=C/C(=O)O)ccc1OS(=O)(=O)O	> 100 µM	> 100 µM	> 100 µM	> 100 µM	> 100 µM	> 100 µM	> 100 µM	> 100 µM	> 100 µM	> 100 µM	–	–	–	–	–	–	–
O=S1(=O)c2ccccc2NC(=S)N1c1ccccc1	> 100 µM	98.4 µM	> 100 µM	> 66.1 µM	> 100 µM	> 100 µM	> 100 µM	48.3 µM	> 100 µM	> 100 µM	–	–	–	–	–	–	–
COC(=O)C1=C(C(=O)OC)C2(C)CCC(=O)C1O2 (stereo not drawn)	> 10 µM	> 10 µM	> 10 µM	> 10 µM	> 10 µM	> 10 µM	> 10 µM	> 10 µM	> 10 µM	> 10 µM	–	–	–	–	–	–	–
N/C(CSCCSC/C(N)=N/O)=N\O	> 100 µM	> 100 µM	> 100 µM	> 100 µM	> 100 µM	> 100 µM	–	> 100 µM	> 100 µM	> 100 µM	–	–	–	–	–	–	–
COc1cc2nc(-c3c(F)cccc3F)n(Cc3c(F)cccc3F)c2cc1Cc1c(F)cccc1F	> 100 µM	> 100 µM	> 100 µM	> 100 µM	> 100 µM	> 100 µM	> 100 µM	> 70.8 µM	> 100 µM	> 100 µM	–	–	–	–	–	–	–
COc1ccc(/C=N/Nc2nc3ccccc3c(=O)n2-c2ccccc2)c(OCc2ccccc2)c1	> 100 µM	> 100 µM	> 100 µM	> 100 µM	> 100 µM	> 100 µM	> 100 µM	> 100 µM	> 100 µM	> 100 µM	> 100 µM	–	–	–	–	–	–
CCN(C(=O)N[C@H](C(=O)N[C@@H](C)C(=O)OC)C(C)C)c1ccccc1	> 100 µM	33 µM	> 100 µM	> 100 µM	55.9 µM	> 100 µM	> 100 µM	> 100 µM	> 100 µM	> 100 µM	–	–	–	–	–	–	–
CC[P+](C#Cc1ccccc1)(c1ccccc1)c1ccccc1	1.69 µM	4.46 µM	6.98 µM	4.19 µM	4.19 µM	6.53 µM	21.1 µM	5.31 µM	5.73 µM	9.43 µM	–	–	–	–	–	–	–
O=c1cc(-c2ccccc2F)[nH]c2cc3c(cc12)OCO3	> 17.7 µM	0.399 µM	0.643 µM	> 78.8 µM	> 47.3 µM	> 100 µM	9.84 µM	17.3 µM	> 100 µM	14.2 µM	–	–	–	–	–	–	–
CC(C)(C)OC(=O)c1ccc(NCc2cc(O)ccc2O)cc1	3.9 µM	22.1 µM	33.7 µM	13.5 µM	3.99 µM	3.75 µM	29.3 µM	18.4 µM	> 34.5 µM	44.3 µM	–	–	–	–	–	–	–
COC(=O)C(CCSC)NC(=O)CSc1nnc(COc2ccc(Cl)cc2)n1-c1ccccc1 (stereo not drawn)	> 66.1 µM	18.2 µM	34.7 µM	32.4 µM	37.1 µM	38.4 µM	32.3 µM	33.7 µM	42.4 µM	43.2 µM	–	–	–	–	–	–	–

SMILES	TGI (CCRF-CEM leukemia)	TGI (HCC-2998 colon)	TGI (HT29 colon)	TGI (LOX IMVI melanoma)	TGI (MALME-3M melanoma)	TGI (PC-3 prostate)	TGI (SF-295 CNS)	TGI (SNB-75 CNS)	TGI (SR leukemia)	TGI (SK-OV-3 ovarian)	GI50 (SNB-75 CNS)	GI50 (CCRF-CEM leukemia)	GI50 (LOX IMVI melanoma)	GI50 (MALME-3M melanoma)	GI50 (PC-3 prostate)	GI50 (SR leukemia)	GI50 (HCC-2998 colon)
CC(C)(C)c1ccc2c(c1)OCc1n[nH]c(n1)COc1cc(C(C)(C)C)ccc1OCCOCCO2	26.8 µM	13.9 µM	10.3 µM	–	7.62 µM	7.59 µM	12.5 µM	19.2 µM	13 µM	15.3 µM	–	–	–	–	–	–	–
O=C(CN=C(CN(c1ccccc1)c1ccccc1)Oc1c(Cl)cc(Cl)cc1Cl)n1cnc2ccccc21	> 100 µM	> 100 µM	> 100 µM	–	> 100 µM	> 100 µM	> 100 µM	> 100 µM	> 100 µM	> 100 µM	–	–	–	–	–	–	–
C[C@@H]1C(=O)CC2(O)[C@@]13C[C@@H](OC(=O)[C@@H]3O)[C@@H](C)[C@@]21COC1=O (stereo partly drawn)	> 100 µM	> 100 µM	> 100 µM	> 100 µM	> 100 µM	> 100 µM	> 100 µM	> 100 µM	> 100 µM	> 100 µM	–	–	–	–	–	–	–
CCOC(=O)Cc1nn2c(=O)cc(C)nc2s1	> 100 µM	> 100 µM	> 100 µM	> 100 µM	> 100 µM	> 100 µM	> 100 µM	> 100 µM	> 100 µM	> 100 µM	–	–	–	–	–	–	–
COC(=O)C(CCCCNC(=O)CNC(=O)OCc1ccccc1)NC(=O)C(CCCCNC(=O)CNC(=O)OCc1ccccc1)NC(=O)OCc1ccccc1 (stereo not drawn)	> 100 µM	> 100 µM	> 100 µM	> 100 µM	> 100 µM	> 100 µM	–	> 100 µM	> 100 µM	–	–	–	–	–	–	–	–
COC(=O)c1sc2ncc3c(c2c1N)CC(C)CC3 (stereo not drawn)	> 100 µM	> 100 µM	> 100 µM	> 100 µM	> 100 µM	> 100 µM	> 100 µM	> 100 µM	> 100 µM	> 100 µM	–	–	–	–	–	–	–
COCC(=O)OC1CCn2c1nc1c2C(=O)C(C)=C(NC(C)=O)C1=O (stereo not drawn)	1.58 µM and 8.85 µM	28.7 µM	29.5 µM	13.2 µM	4.94 µM and 6.11 µM	7.68 µM	31.7 µM	14.8 µM	5.17 µM and 12.5 µM	34.3 µM	–	0.262 µM	2.81 µM	2.37 µM	3.56 µM	2.52 µM	–
COP(=O)(CC(=O)C1OC(OCc2ccccc2)C(OCc2ccccc2)C(OCc2ccccc2)C1OCc1ccccc1)OC (stereo not drawn)	> 100 µM	19.2 µM	24.2 µM	32.3 µM	94.5 µM	> 100 µM	> 100 µM	92.3 µM	21.4 µM	> 100 µM	–	–	–	–	–	–	–
CC1(C)OC(CCO)CN1C(=O)OCc1ccccc1 (stereo not drawn)	> 100 µM	> 100 µM	–	> 100 µM	> 100 µM	> 100 µM	> 100 µM	> 100 µM	> 100 µM	> 100 µM	–	–	–	–	–	–	–
Cc1ccc2c(c1)C(=O)/C(=C\c1ccc(Cl)cc1)CCS2(=O)=O	> 20.8 µM	5.43 µM	6.54 µM	6.43 µM	6.42 µM	39.1 µM	17.9 µM	18.4 µM	5.55 µM	22.4 µM	–	–	–	–	–	–	–
O=CN(O)CC(=O)O	> 100 µM	> 100 µM	> 100 µM	> 100 µM	> 100 µM	> 100 µM	> 100 µM	> 100 µM	> 100 µM	> 100 µM	–	–	–	–	–	–	–
COc1cc2c(cc1OCCCOc1cc3c(cc1OC)C(=O)N1CCC[C@H]1CN3)N=C[C@@H]1CCCN1C2=O	> 100 µM	0.468 µM	13.7 µM	10.8 µM	0.268 µM	8.4 µM	0.671 µM	2.89 µM	0.0265 µM	> 100 µM	–	–	–	–	–	–	0.172 µM
COn1cc(CO)c2ccccc21	> 100 µM	> 100 µM	> 100 µM	> 100 µM	> 100 µM	> 100 µM	> 100 µM	> 100 µM	> 100 µM	> 100 µM	–	–	–	–	–	–	–
COc1cc(/C=C/c2cc(=O)cc(/C=C/c3ccc(O)c(OC)c3)o2)ccc1O	–	> 100 µM	> 100 µM	> 100 µM	> 100 µM	> 100 µM	> 100 µM	> 95 µM	> 100 µM	> 100 µM	–	–	–	–	–	–	–
O=C(/C=C1\C[C@H]2C=Nc3ccccc3C(=O)N2C1)NCCCCCNC(=O)/C=C1\C[C@H]2C=Nc3ccccc3C(=O)N2C1	12.7 µM	32.7 µM	27.4 µM	4.47 µM	7.09 µM	27.1 µM	33 µM	28.4 µM	12.4 µM	30.3 µM	–	–	–	–	–	–	–
Cc1ccc(-n2cc(-c3ccc(Cl)cc3)c3c2N=CN2NC(c4ccco4)=NC32)cc1 (stereo not drawn)	> 100 µM	> 100 µM	> 100 µM	> 100 µM	> 100 µM	> 100 µM	27.8 µM	18.1 µM	11.6 µM	16 µM	–	–	–	–	–	–	–
